# Where “and” joins values, the source holds several entries; their conditions need not be identical. Equal values may be shown once.
# Experiments:
# [1] = Shake-flask solubility with spectrophotometric measurement in aqueous DES mixtures; format: physicochemical
# Method: (§1) In order to determine the solubility of the three studied phenolic acids in deep eutectic solvents, a very well-established shake-flask method coupled with spectrophotometric measurements was utilized. The initial procedure involved the preparation of various DESs, which was conducted by mixing their HBA and HBD counterparts in a glass vessel and heating the composition until the formation of a transparent, uniform liquid. […] For additional measurements, the DESs were mixed with water in varying proportions, creating aqueous DES systems. Saturated solutions of CAF, SYR, and COU were obtained by adding excess amounts of these compounds to test tubes containing either a neat deep eutectic solvent or its aqueous solution. Such samples were placed in the Orbital Shaker Incubator ES-20/60 from Biosan (Riga, Latvia) and heated for 24 h at 25 °C, 30 °C, 35 °C, and 40 °C (±0.1 °C) with simultaneous mixing at 60 rpm. Before measurements, the samples were filtered using a PTFE syringe filter from Qpore (Dallas, TX, USA) with a 0.22 μm pore size. In order to avoid possible precipitation of the saturated solutions at decreased temperatures, the test tubes, syringes, pipette tips, and filters were kept at a temperature identical to that of the samples. The spectrophotometric measurements required the preparation of calibration curves for the three APIs. This involved the preparation of a stock solution of each compound in methanol, which was later successfully diluted, and the obtained solutions of varying concentrations were measured using an A360 spectrophotometer from AOE Instruments (Shanghai, China). The wavelength range was set to 200-500 nm, and the resolution was 1 nm. The analytical wavelengths were determined to be 324 nm for caffeic acid, 273 nm for syringic acid, and 308 nm for p-coumaric acid. The final regression equations, obtained after averaging three distinct sets of measurements, are collected in Table 2 together with determination coefficients and limits of detection (LOD) and quantification (LOQ) for the calibration curves. The measurements of the samples were conducted with the same spectrophotometer and identical settings. Methanol was used for the dilution of the samples so that they could remain within the linearity range of the method. Complete spectra of the samples were recorded, but for the solubility determination, the absorbance values at a specific analytical wavelength were considered. These values were combined with the corresponding regression equations of the calibration curves and served for the calculation of the concentration of the three phenolic acids in the studied samples. The densities of such samples were also measured, and for this task 1 mL of each sample was weighed to a precision of 0.1 mg using an AS 110 R2.PLUS analytical balance from […] (Radom, Poland). The obtained densities enabled the calculation of mole fractions of CAF, SYR, and COU dissolved in the studied DESs. For each considered system, three distinct measurements were conducted, and the results were averaged.
# [2] = Shake-flask solubility with spectrophotometric measurement in neat deep eutectic solvents; format: physicochemical
# Method: as §1
compound,measurement,setting,value
"O=C(O)C=Cc1ccc(O)cc1 [p-coumaric acid, 4-hydroxycinnamic acid]",Mole fraction solubility,"[1]; ChCl – TEG 1:2 + water, x*DES 0.3, 35°C",0.0649±0.0005 mole fraction
same,Mole fraction solubility,"[1]; ChCl – TEG 1:2 + water, x*DES 0.3, 40°C",0.0862±0.0009 mole fraction
same,Mole fraction solubility,"[1]; ChCl – TEG 1:2 + water, x*DES 0.4, 25°C",0.0512±0.0003 mole fraction
same,Mole fraction solubility,"[1]; ChCl – TEG 1:2 + water, x*DES 0.4, 30°C",0.0664±0.0007 mole fraction
same,Mole fraction solubility,"[1]; ChCl – TEG 1:2 + water, x*DES 0.4, 35°C",0.0861±0.0005 mole fraction
same,Mole fraction solubility,"[1]; ChCl – TEG 1:2 + water, x*DES 0.4, 40°C",0.1133±0.0008 mole fraction
same,Mole fraction solubility,"[1]; ChCl – TEG 1:2 + water, x*DES 0.5, 25°C",0.0632±0.0004 mole fraction
same,Mole fraction solubility,"[1]; ChCl – TEG 1:2 + water, x*DES 0.5, 30°C",0.0790±0.0006 mole fraction
same,Mole fraction solubility,"[1]; ChCl – TEG 1:2 + water, x*DES 0.5, 35°C",0.1033±0.0010 mole fraction
same,Mole fraction solubility,"[1]; ChCl – TEG 1:2 + water, x*DES 0.5, 40°C",0.1413±0.0012 mole fraction
same,Mole fraction solubility,"[1]; ChCl – TEG 1:2 + water, x*DES 0.6, 25°C",0.0774±0.0005 mole fraction
same,Mole fraction solubility,"[1]; ChCl – TEG 1:2 + water, x*DES 0.6, 30°C",0.0946±0.0004 mole fraction
same,Mole fraction solubility,"[1]; ChCl – TEG 1:2 + water, x*DES 0.6, 35°C",0.1258±0.0012 mole fraction
same,Mole fraction solubility,"[1]; ChCl – TEG 1:2 + water, x*DES 0.6, 40°C",0.1692±0.0013 mole fraction
same,Mole fraction solubility,"[1]; ChCl – TEG 1:2 + water, x*DES 0.7, 25°C",0.0885±0.0008 mole fraction
same,Mole fraction solubility,"[1]; ChCl – TEG 1:2 + water, x*DES 0.7, 30°C",0.1119±0.0007 mole fraction
same,Mole fraction solubility,"[1]; ChCl – TEG 1:2 + water, x*DES 0.7, 35°C",0.1523±0.0007 mole fraction
same,Mole fraction solubility,"[1]; ChCl – TEG 1:2 + water, x*DES 0.7, 40°C",0.2060±0.0014 mole fraction
same,Mole fraction solubility,"[1]; ChCl – TEG 1:2 + water, x*DES 0.8, 25°C",0.1016±0.0009 mole fraction
same,Mole fraction solubility,"[1]; ChCl – TEG 1:2 + water, x*DES 0.8, 30°C",0.1348±0.0012 mole fraction
same,Mole fraction solubility,"[1]; ChCl – TEG 1:2 + water, x*DES 0.8, 35°C",0.1803±0.0006 mole fraction
same,Mole fraction solubility,"[1]; ChCl – TEG 1:2 + water, x*DES 0.8, 40°C",0.2401±0.0023 mole fraction
same,Mole fraction solubility,"[1]; ChCl – TEG 1:2 + water, x*DES 0.9, 25°C",0.1054 mole fraction and 0.1054±0.0008 mole fraction
same,Mole fraction solubility,"[1]; ChCl – TEG 1:2 + water, x*DES 0.9, 30°C",0.1368±0.0008 mole fraction
same,Mole fraction solubility,"[1]; ChCl – TEG 1:2 + water, x*DES 0.9, 35°C",0.1857±0.0007 mole fraction
same,Mole fraction solubility,"[1]; ChCl – TEG 1:2 + water, x*DES 0.9, 40°C",0.2507±0.0018 mole fraction
same,Mole fraction solubility,"[1]; ChCl – TEG 1:2, x*DES 1.0 (neat DES), 25°C",0.0997±0.0009 mole fraction
same,Mole fraction solubility,"[1]; ChCl – TEG 1:2, x*DES 1.0 (neat DES), 30°C",0.1304±0.0012 mole fraction
same,Mole fraction solubility,"[1]; ChCl – TEG 1:2, x*DES 1.0 (neat DES), 35°C",0.1773±0.0014 mole fraction
same,Mole fraction solubility,"[1]; ChCl – TEG 1:2, x*DES 1.0 (neat DES), 40°C",0.2433±0.0022 mole fraction
same,Increase in the solubility compared to the neat DES,"[1]; ChCl-TEG 1:2, x*DES = 0.9 (xwater = 0.1), 25 °C",6%
same,Solubility increase between 25 °C and 40 °C,[1]; neat DES (x*DES = 1.0) involving betaine (Bet-GLY 1:2),205%
same,Solubility increase between 25 °C and 40 °C,[1]; neat DES (x*DES = 1.0) with choline chloride (ChCl-TEG 1:2),244%
same,Mole fraction solubility,"[2]; neat DES Bet - DEG, HBA:HBD molar ratio 1:1, 25 °C",0.0490±0.0005 mole fraction
same,Mole fraction solubility,"[2]; neat DES Bet - DEG, HBA:HBD molar ratio 1:2, 25 °C",0.0639±0.0004 mole fraction
same,Mole fraction solubility,"[2]; neat DES Bet - DEG, HBA:HBD molar ratio 1:4, 25 °C",0.0575±0.0005 mole fraction
same,Mole fraction solubility,"[2]; neat DES Bet - ETG, HBA:HBD molar ratio 1:1, 25 °C",0.0323±0.0004 mole fraction
same,Mole fraction solubility,"[2]; neat DES Bet - ETG, HBA:HBD molar ratio 1:2, 25 °C",0.0351±0.0002 mole fraction
same,Mole fraction solubility,"[2]; neat DES Bet - GLY, HBA:HBD molar ratio 1:1, 25 °C",0.0670±0.0005 mole fraction
same,Mole fraction solubility,"[2]; neat DES Bet - GLY, HBA:HBD molar ratio 1:2, 25 °C",0.0898 mole fraction
same,Mole fraction solubility,"[2]; neat DES Bet - GLY, HBA:HBD molar ratio 1:2, 25 °C, listed as coumaric acid",0.0898±0.0003 mole fraction
same,Mole fraction solubility,"[2]; neat DES Bet - GLY, HBA:HBD molar ratio 1:4, 25 °C",0.0739±0.0004 mole fraction
same,Mole fraction solubility,"[2]; neat DES Bet - TEG, HBA:HBD molar ratio 1:1, 25 °C",0.0648±0.0006 mole fraction
same,Mole fraction solubility,"[2]; neat DES Bet - TEG, HBA:HBD molar ratio 1:2, 25 °C",0.0894±0.0005 mole fraction
same,Mole fraction solubility,"[2]; neat DES Bet - TEG, HBA:HBD molar ratio 1:4, 25 °C",0.0778±0.0005 mole fraction
same,Mole fraction solubility,"[2]; neat DES ChCl - DEG, HBA:HBD molar ratio 1:1, 25 °C",0.0644±0.0004 mole fraction
same,Mole fraction solubility,"[2]; neat DES ChCl - DEG, HBA:HBD molar ratio 1:2, 25 °C",0.0775±0.0005 mole fraction
same,Mole fraction solubility,"[2]; neat DES ChCl - ETG, HBA:HBD molar ratio 1:1, 25 °C",0.0387±0.0004 mole fraction
same,Mole fraction solubility,"[2]; neat DES ChCl - ETG, HBA:HBD molar ratio 1:2, 25 °C",0.0470±0.0003 mole fraction
same,Mole fraction solubility,"[2]; neat DES ChCl - ETG, HBA:HBD molar ratio 1:4, 25 °C",0.0411±0.0004 mole fraction
same,Mole fraction solubility,"[2]; neat DES ChCl - TEG, HBA:HBD molar ratio 1:2, 25 °C",0.0997 mole fraction

# Source: PMC12564265, “Navigating the Deep Eutectic Solvent Landscape: Experimental and Machine Learning Solubility Explorations of Syringic, p-Coumaric, and Caffeic Acids” (International Journal of Molecular Sciences, 2025)
